Laboratory results as given in PubChem BioAssay (NCI).
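Cells were grown in 96-well plates and exposed to each compound for 48 hours at five concentrations; endpoints were interpolated linearly between bracketing concentrations, or set to the highest concentration if not reached. GI50: concentration for 50% inhibition of growth. TGI is the concentration that stops growth completely.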 Where a SMILES comes first, the peptide text is derived from it. The star is where a group is joined. ONb = O=[N+]([O-])c1ccc(CO*)cc1; Boc = CC(C)(C)OC(=O)*

Legend:
Assay in all cases: NCI anticancer screen, dose series, 48 h
NCI-H522 lung = test system: NCI-H522 lung
MDA-MB-231 breast = test system: MDA-MB-231 breast
SK-MEL-28 melanoma = test system: SK-MEL-28 melanoma
A549 NSCLC = test system: A549 NSCLC
HT29 colon = test system: HT29 colon
MCF7 breast = test system: MCF7 breast
NCI/ADR-RES ovarian = test system: NCI/ADR-RES ovarian
NCI-H23 lung = test system: NCI-H23 lung
SN12C renal = test system: SN12C renal
CAKI-1 renal = test system: CAKI-1 renal

Row | SMILES | TGI (NCI-H522 lung) [µM] | TGI (MDA-MB-231 breast) [µM] | TGI (SK-MEL-28 melanoma) [µM] | TGI (A549 NSCLC) [µM] | TGI (HT29 colon) [µM] | TGI (MCF7 breast) [µM] | TGI (NCI/ADR-RES ovarian) [µM] | TGI (NCI-H23 lung) [µM] | TGI (SN12C renal) [µM] | TGI (CAKI-1 renal) [µM] | GI50 (NCI-H522 lung) [µM] | GI50 (MDA-MB-231 breast) [µM] | GI50 (SK-MEL-28 melanoma) [µM] | GI50 (A549 NSCLC) [µM] | GI50 (HT29 colon) [µM] | GI50 (NCI/ADR-RES ovarian) [µM] | GI50 (NCI-H23 lung) [µM] | GI50 (SN12C renal) [µM] | GI50 (CAKI-1 renal) [µM]
1 | O=C(CCCCCCC(=O)Nc1cccnc1)NO | 17.3 | > 100 | > 80.3 | > 100 | > 37.4 | > 100 | 10.1 | > 100 | > 38.8 | > 100 |  |  |  |  |  |  |  |  | 
2 | O=c1[nH]c(Nc2cc(Cl)cc(Cl)c2)nc2nc[nH]c12 |  | > 75 |  | > 75 | > 75 | > 75 | > 75 | > 75 | > 75 | > 75 |  |  |  |  |  |  |  |  | 
3 | CC(C)CC(NC(=O)OC(C)(C)C)C(=O)NC(CCC(=O)OCc1ccc([N+](=O)[O-])cc1)C(=O)OCc1ccc([N+](=O)[O-])cc1 (stereo not drawn) (Boc-Leu-Glu(ONb)-ONb; configuration not given here) |  | > 100 | 30.9 |  | 94.7 |  | > 100 | 59.4 | > 100 | > 100 |  |  |  |  |  |  |  |  | 
4 | CCOC(=O)c1ccc(C(=O)/C(C(C)=O)=C2\CCCN2C)n1C | > 100 | > 100 | > 100 | > 100 |  | > 100 | > 100 | > 100 | > 100 | > 100 |  |  |  |  |  |  |  |  | 
5 | N#CCCC1(CCC#N)CCCCCCCCC(CCC#N)(CCC#N)C(=O)C1=O | 88.2 |  | > 100 | > 100 | > 100 | > 100 | > 100 | > 100 | > 100 | > 100 |  |  |  |  |  |  |  |  | 
6 | COc1cc(/C=C/C(=O)c2c(C)nc3ccccc3c2C)ccc1OCCCOc1cc2c(cc1OC)C(=O)N1CCC[C@H]1C=N2 | 22.9 | 0.0985 | 0.044 | 0.0623 | 3.03 |  | 5.92 | 0.0459 | 0.327 | 0.138 | 0.0337 | 0.0306 | 0.0214 | 0.0268 | 0.028 | 0.393 | 0.0197 | 0.0353 | 0.0291
7 | CC(=O)N(O)[C@@H]1CC[C@H](n2cnc3c(N)ncnc32)C1 | > 100 | > 100 | > 100 | > 100 |  | > 100 | > 100 | > 100 | > 100 | > 100 |  |  |  |  |  |  |  |  | 
8 | COC(=O)/C=C/c1ccc2c(c1)CC1(C2)Cc2cc3c(cc2C1=O)CCC3 (configuration not stated) | > 100 | > 100 | > 100 | > 100 |  | > 100 | > 100 |  | > 100 | > 100 |  |  |  |  |  |  |  |  | 
9 | CCN1CCN(c2nc3ccc([N+](=O)[O-])cc3nc2C(=O)c2ccccc2)CC1 | 10.3 | 28.7 |  | 33.7 |  | 34.8 | 29.2 | 34.4 | 30.9 | 30.5 |  |  |  |  |  |  |  |  | 
10 | COC(=O)C1=C(O)C(C(=O)OC)[C@]2(O)[C@H](C(=O)OC)[C@H]1C[C@@H](c1c(Cl)cccc1Cl)[C@H]2C(=O)OC (some centres not stated) |  | 12.9 | 7.55 | 6.21 | 7.16 | 12.3 | 7.01 | 5.44 | 5.2 | 11.3 |  |  |  |  |  |  |  |  | 
11 | CCCCCCCCCCCCCC[n+]1ccc2c(C)c3c(c(C)c2c1)c1cc(O)ccc1n3CC | 2 | 2.1 | 1.73 |  |  |  | 32.3 | 1.02 | 1.31 |  | 0.42 | 0.602 | 0.496 |  |  | 5.13 | 0.223 | 0.341 | 
